Patent US8415346B2, “Inhibitors of Janus kinases” (Merck Sharp & Dohme Corp., priority 2008, dated 2013)

Target: T1, recombinant JAK2 (JAK2 JH1 domain) (Homo sapiens, UniProt O60674)
T1 construct: 50 nM JAK2 JH1 domain (Upstate); purchased Upstate
Assay: JAK2 Kinase Activity Inhibition Assay and Determination of IC50 (HTRF)
Type: biochemical
Conditions: HTRF kinase assay, 15 μM MgATP, 50 nM JAK2 JH1 domain
Description: JAK2 Kinase Activity Inhibition Assay and Determination of IC50
The kinase activity was measured using a modified version of the homogeneous time-resolved tyrosine kinase assay described in Park et al. Anal. Biochem. 269, 94-104 (1999).
IC50 was obtained by fitting the observed relationship between compound/inhibitor concentration and HTRF signal with a 4-parameter logistic equation.
Compounds of the instant invention are potent inhibitors of recombinant purified JAK2 kinase activity with an IC50 of approximately 8 nM-1 μM.

T1 sequence (O60674 849-1124 limits assumed): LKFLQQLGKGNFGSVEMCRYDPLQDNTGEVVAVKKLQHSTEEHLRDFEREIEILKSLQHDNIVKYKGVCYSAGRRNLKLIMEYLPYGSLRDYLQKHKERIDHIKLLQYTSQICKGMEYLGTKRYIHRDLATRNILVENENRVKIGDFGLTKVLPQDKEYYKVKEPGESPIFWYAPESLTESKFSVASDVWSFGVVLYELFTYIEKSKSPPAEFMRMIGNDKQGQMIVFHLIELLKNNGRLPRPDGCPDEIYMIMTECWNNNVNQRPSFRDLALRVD

| Compound | IC50 [nM] |
| --- | --- |
| NC(=O)c1cn(-c2ccccc2)nc1Nc1ccnc(CO)c1 [Example 3, 3-{[2-(hydroxymethyl)pyridin-4-yl]amino}-1-phenyl-1H-pyrazole-4-carboxamide] | 860 |
| CN(C)C(=O)c1ccc(Nc2nn(-c3ccccc3)cc2C(N)=O)cc1 [Example 7, 3-({4-[(dimethylamino)carbonyl]phenyl}amino)-1-phenyl-1H-pyrazole-4-carboxamide] | 56 |
| NC(=O)c1cn(-c2ccccc2)nc1Nc1ccccc1 [Example 8, 3-anilino-1-phenyl-1H-pyrazole-4-carboxamide] | 480 |
| NC(=O)c1cn(-c2ccccc2)nc1Nc1ccc(C(=O)N2CCS(=O)(=O)CC2)cc1 [Example 10, 3-({4-[(1,1-dioxidothiomorpholin-4-yl)carbonyl]phenyl}amino)-1-phenyl-1H-pyrazole-4-carboxamide] | 13 |
| NC(=O)c1cn(-c2ccccc2)nc1Nc1ccc(CN2CCOCC2)cc1 [Example 11, 3-{[4-(morpholin-4-ylmethyl)phenyl]amino}-1-phenyl-1H-pyrazole-4-carboxamide] | 49 |
| NC(=O)c1cn(-c2ccccc2)nc1Nc1ccc(CN2CCS(=O)(=O)CC2)cc1 [Example 12, 3-({4-[(1,1-dioxidothiomorpholin-4-yl)methyl]phenyl}amino)-1-phenyl-1H-pyrazole-4-carboxamide] | 36 |
| CS(=O)(=O)c1ccc(Nc2nn(-c3ccc(S(C)(=O)=O)cc3)cc2C(N)=O)cc1 [Example 16, 1-[4-(methylsulfonyl)phenyl]-3-{[4-(methylsulfonyl)phenyl]amino}-1H-pyrazole-4-carboxamide] | 48 |
| CC(O)c1ccc(-n2cc(C(N)=O)c(Nc3ccc(S(C)(=O)=O)cc3)n2)cc1 (stereo not drawn) [Example 18, 1-[4-(1-hydroxyethyl)phenyl]-3-{[4-(methylsulfonyl)phenyl]amino}-1H-pyrazole-4-carboxamide] | 20 |

Now from value to molecule:

| IC50 [nM] | Compound |
| --- | --- |
| 170 | CS(=O)(=O)c1ccc(Nc2nn(-c3ccccc3)cc2C(N)=O)cc1 [Example 1, 3-{[4-(methylsulfonyl)phenyl]amino}-1-phenyl-1H-pyrazole-4-carboxamide] |
| 160 | CNC(=O)c1ccc(Nc2nn(-c3ccccc3)cc2C(N)=O)cc1 [Example 2, 3-({4-[(methylamino)carbonyl]phenyl}amino)-1-phenyl-1H-pyrazole-4-carboxamide] |
| 94 | NC(=O)c1cn(-c2ccccc2)nc1Nc1ccc(C(=O)N2CCOCC2)cc1 [Example 4, 3-{[4-(morpholin-4-ylcarbonyl)phenyl]amino}-1-phenyl-1H-pyrazole-4-carboxamide] |
| 63 | NC(=O)c1cn(-c2ccccc2)nc1Nc1ccc(S(=O)(=O)N2CCOCC2)cc1 [Example 5, 3-{[4-(morpholin-4-ylsulfonyl)phenyl]amino}-1-phenyl-1H-pyrazole-4-carboxamide] |
| 42 | CN(C)S(=O)(=O)c1ccc(Nc2nn(-c3ccccc3)cc2C(N)=O)cc1 [Example 6, 3-({4-[(dimethylamino)sulfonyl]phenyl}amino)-1-phenyl-1H-pyrazole-4-carboxamide] |
| 38 | CN1CCN(C(=O)c2ccc(Nc3nn(-c4ccccc4)cc3C(N)=O)cc2)CC1 [Example 9, 3-({4-[(4-methylpiperazin-1-yl)carbonyl]phenyl}amino)-1-phenyl-1H-pyrazole-4-carboxamide] |
| 36 | CN(C)Cc1ccc(Nc2nn(-c3ccccc3)cc2C(N)=O)cc1 [Example 13, 3-({4-[(dimethylamino)methyl]phenyl}amino)-1-phenyl-1H-pyrazole-4-carboxamide] |
| 81 | CC(C)(O)c1ccc(Nc2nn(-c3ccccc3)cc2C(N)=O)cc1 [Example 14, 3-{[4-(1-hydroxy-1-methylethyl)phenyl]amino}-1-phenyl-1H-pyrazole-4-carboxamide] |
| 290 | CS(=O)(=O)c1ccc(Nc2nn(-c3ccc(Cl)cc3)cc2C(N)=O)cc1 [Example 15, 1-(4-chlorophenyl)-3-{[4-(methylsulfonyl)phenyl]amino}-1H-pyrazole-4-carboxamide] |
| 8.1 | CC(C)(C)c1ccc(-n2cc(C(N)=O)c(Nc3ccc(S(C)(=O)=O)cc3)n2)cc1 [Example 17, 1-(4-tert-butylphenyl)-3-{[4-(methylsulfonyl)phenyl]amino}-1H-pyrazole-4-carboxamide] |
